# Tested on: Amyloid β-protein
# Experiment: Screening of the degree of β-structure recognition (fluorescence, in the presence of Congo red)
# Assay type: binding
# Conditions: test compound 5 µM, amyloid β-protein 5 µM, Congo red 0.1 µM, phosphate buffer pH 7.4
row,Molecule,Degree of β-structure recognition (%)
1,"2-[2-(2-dimethylamino-1,3,4-thiazol-5-yl)ethenyl]benzoxazole [BF-237]",76.5
2,"CN(C)c1ncc(-c2ccc3ccccc3n2)o1 [BF-221, 2-(2-dimethylaminooxazol-5-yl)quinoline]",73.8
3,"CN(C)c1ncc(-c2nc3ccccc3o2)s1 [BF-225, 2-(2-dimethylaminothiazol-5-yl)benzoxazole]",87.5
4,"Cc1ccc(S(=O)(=O)OCCOc2ccc3nc(/C=C/c4cnc(N(C)C)s4)oc3c2)cc1 [BF-226, 2-[2-(2-dimethylaminothiazol-5-yl)ethenyl]-6-[2-(4-tosyloxy)ethoxy]benzoxazole]",43.3
5,"Cc1nc(/C=C/C=C/c2cnc(N(C)C)o2)oc1C [BF-229, 2-[4-(2-dimethylaminooxazol-5-yl)-1,3-butadienyl]-4,5-dimethyloxazole]",70.7
6,"CNc1ncc(/C=C/c2ccc(O)cc2)s1 [BF-235, 5-(4-hydroxystyryl)-2-methylaminothiazole]",65.5
7,"CN(C)c1nnc(/C=C/c2nc3ccccc3o2)o1 [BF-238, 2-[2-(2-dimethylamino-1,3,4-oxazol-5-yl)ethenyl]benzoxazole]",52.3
8,"Nc1ncc(-c2ccc3ccccc3n2)s1 [BF-240, 2-(2-aminothiazol-5-yl)quinoline]",49.9
9,"CCC[CH2][Sn]([CH2]CCC)([CH2]CCC)[c]1ccc2nc(C=Cc3cnc(N(C)C)s3)oc2c1 [BF-246, 6-tri(n-butyl)stannyl-2-[2-(2-dimethylaminothiazol-5-yl)ethenyl]benzoxazole]",24.6
10,"CN(C)c1ncc(/C=C/c2nc3ccc(I)cc3o2)s1 [BF-247, 6-(iodo)-2-[2-(2-dimethylaminothiazol-5-yl)ethenyl]benzoxazole]",43.7
11,"CN(C)c1ncc(/C=C/c2nc3ccccc3[nH]2)s1 [BF-248, 2-[2-(2-dimethylaminothiazol-5-yl)ethenyl]benzimidazole]",40.1
12,"CN(C)c1cnc(/C=C/c2nc3ccccc3s2)o1 [BF-250, 2-[2-(5-dimethylaminooxazol-2-yl)ethenyl]benzothiazole]",43.1
13,"Cc1ccc(S(=O)(=O)OCCOc2ccc3nc(/C=C/c4cnc(N(C)C)s4)sc3c2)cc1 [BF-251, 2-[2-(2-dimethylaminothiazol-5-yl)ethenyl]-6-[2-(4-tosyloxy)ethoxy]benzothiazole]",37.5
14,"CN(C)c1ncc(/C=C/c2nc3ccc(OCCF)cc3s2)s1 [BF-252, 2-[2-(2-dimethylaminothiazol-5-yl)ethenyl]-6-[2-(fluoro)ethoxy]benzothiazole]",47.0
15,"Nc1cnc(-c2ccc3ccccc3n2)o1 [BF-255, 2-(5-アミノオキサゾール-2-イル)キノリン]",65.8
16,"Cc1ccc2c(c1)sc(-c1ccc(N(C)C)cc1)[n+]2C [Thioflavin T, reference compound]",61.8
